Assay results: publication PMC12000319, “Proton conductance by human uncoupling protein 1 is inhibited by purine and pyrimidine nucleotides” (The EMBO Journal, 2025)
Values joined by “and” are separate entries in the source; they are usually repeats but may differ in a detail not shown here. Equal values may be shown once. Read-outs that look alike come from different tables or passages of the source. Values belong to the compound of their own block, whether it stands above or below them.

What was measured:
[1] = tested on: UCP1; design: method as in Heaton and Nicholls, 1977; Divakaruni et al, 2012; settings: whole mitochondria; ref Heaton and Nicholls, 1977; Divakaruni et al, 2012; cited from earlier work
[2] = molecular target: T1, UCP1 (Homo sapiens, UniProt P25874); assay: Isothermal titration calorimetry of nucleotide binding; design: isotherm data point (enthalpy change per injection): unit not given here; settings: for isotherm data point (enthalpy change per injection): representative isotherm;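 as to all read-outs here: purified human UCP1 in cacodylate buffer with lauryl maltose neopentyl glycol and cardiolipin, titrated with nucleotides, isotherms fitted by one-site model yielding ΔH, Kd and stoichiometry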
T1 construct: His8 (N, cleaved yes); Factor Xa protease cleavage site (N, cleaved yes); made in house; host or cells: Saccharomyces cerevisiae strain W303.1B
T1 sequence (P25874 1-307): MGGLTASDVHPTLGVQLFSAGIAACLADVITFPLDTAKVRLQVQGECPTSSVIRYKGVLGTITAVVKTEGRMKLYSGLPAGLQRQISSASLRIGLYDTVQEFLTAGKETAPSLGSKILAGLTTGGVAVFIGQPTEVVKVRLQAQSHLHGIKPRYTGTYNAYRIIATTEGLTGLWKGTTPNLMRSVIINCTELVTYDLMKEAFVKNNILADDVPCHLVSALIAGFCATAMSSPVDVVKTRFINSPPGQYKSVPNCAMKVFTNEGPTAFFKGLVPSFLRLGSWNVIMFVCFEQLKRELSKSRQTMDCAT

[3] = molecular target: T1, UCP1; assay: Differential scanning fluorimetry (nanoDSF) thermal stability shift assay; format: binding; settings: for ΔTm at 1000 µM: read-out: thermal shift (ΔTm)
[4] = molecular target: T2, human DIC (SLC25A10) (Homo sapiens, UniProt Q9UBX3); assay: as above; format: binding; settings: 1 mM nucleotide, pH 6.0, single repeats (source data Fig. 4A)
T2 construct: His8 (N, cleaved yes); Factor Xa protease cleavage site (N, cleaved yes); made in house; host or cells: Saccharomyces cerevisiae protease-deficient strain BJ2186
T2 sequence (Q9UBX3 1-287): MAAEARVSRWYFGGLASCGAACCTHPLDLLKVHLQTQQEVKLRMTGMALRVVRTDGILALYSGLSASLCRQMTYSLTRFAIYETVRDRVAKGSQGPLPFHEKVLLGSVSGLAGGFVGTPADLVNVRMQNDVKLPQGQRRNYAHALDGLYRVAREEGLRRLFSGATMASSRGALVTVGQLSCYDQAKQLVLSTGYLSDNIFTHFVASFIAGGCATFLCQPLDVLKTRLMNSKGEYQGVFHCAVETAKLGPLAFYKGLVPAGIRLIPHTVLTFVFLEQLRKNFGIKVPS
Text: UCP1 is phylogenetically related to mitochondrial dicarboxylate carriers, gaining thermogenic properties as a later evolutionary development (Hughes et al, [2009]; Robinson et al, [2008]). The mitochondrial dicarboxylate carrier (DIC, SLC25A10) and oxoglutarate carrier (OGC, SLC25A11) are most closely related to UCP1 (Gaudry et al, [2019]; Hughes et al, [2009]) and share many residues involved in nucleotide binding in UCP1, such as the arginine triplet at the contact points, R92 and Q85 (Jones et al, [2024]). Given the similarity of the central cavity of UCP1, OGC and DIC, we tested whether the dicarboxylate carriers have the ability to bind nucleotides. For this purpose, we purified human DIC and OGC, and tested whether nucleotides were able to generate a thermostability shift, as observed for their physiological substrates (Pyrihová et al, [2024]). However, all tested nucleotides caused a negligible shift with both DIC or OGC at all pH values tested between 6.0 and 8.0 (Fig. 4A; Appendix Fig. S5). Thus, despite having many residues in common (Fig. 4B–D), UCP1 has evolved to have a few specific residues that allow high-affinity binding of nucleotides without a strong selection for nucleobase.
Differential scanning fluorimetry (nanoDSF) (Alexandrov et al, [2008]) was carried out with 2 µg UCP1, DIC or OGC protein (100 mM MES/HEPES, pH range 6.0–8.0, 25 mM NaCl, 1 mM TCEP, 0.01% lauryl maltose neopentyl glycol and 0.01 mg/mL tetraoleoyl cardiolipin) and, when required, 1 mM nucleotide, as indicated. The proteins have the following number of tryptophans: UCP1 (two); OGC (two); DIC (one). The samples were loaded into nanoDSF-grade standard glass capillaries. The temperature was increased by […] every minute from 25 to 95 °C, the intrinsic fluorescence was measured in a Prometheus NT.48 nanoDSF device, and the apparent Tm was calculated with the PR.ThermControl software (NanoTemper Technologies).

Structure (SMILES): Nc1ccn([C@@H]2O[C@H](COP(=O)(O)OP(=O)(O)O)[C@@H](O)[C@H]2O)c(=O)n1 [CDP]
competition with GDP binding [1]: unable to displace the binding of GDP

binding affinity to UCP1 (in words) ([2]; ITC): lowest affinity | Kd ([2]; ITC, pH 6.0, 20 °C, mean ± standard deviation of three biological repeats (Fig. 2A-E)): 4.85 ± 0.69 µM | Kd ([2]; ITC, single biological repeats (source data Fig. 2F)): 5.47 µM and 4.96 µM and 4.11 µM | isotherm data point (enthalpy change per injection) ([2]; Molar ratio (Nucleotide/UCP) 0.120417, pH 6.0, 20 °C): -22.2743 | isotherm data point (enthalpy change per injection) ([2]; Molar ratio (Nucleotide/UCP) 0.181226, pH 6.0, 20 °C): -21.186 | isotherm data point (enthalpy change per injection) ([2]; Molar ratio (Nucleotide/UCP) 0.242439, pH 6.0, 20 °C): -19.9722 | isotherm data point (enthalpy change per injection) ([2]; Molar ratio (Nucleotide/UCP) 0.304059, pH 6.0, 20 °C): -20.0539 | isotherm data point (enthalpy change per injection) ([2]; Molar ratio (Nucleotide/UCP) 0.366087, pH 6.0, 20 °C): -20.6988 | isotherm data point (enthalpy change per injection) ([2]; Molar ratio (Nucleotide/UCP) 0.428528, pH 6.0, 20 °C): -18.255 | isotherm data point (enthalpy change per injection) ([2]; Molar ratio (Nucleotide/UCP) 0.491383, pH 6.0, 20 °C): -16.7607 | isotherm data point (enthalpy change per injection) ([2]; Molar ratio (Nucleotide/UCP) 0.554656, pH 6.0, 20 °C): -16.5202 | isotherm data point (enthalpy change per injection) ([2]; Molar ratio (Nucleotide/UCP) 0.618348, pH 6.0, 20 °C): -14.6191 | isotherm data point (enthalpy change per injection) ([2]; Molar ratio (Nucleotide/UCP) 0.682464, pH 6.0, 20 °C): -13.3617 | isotherm data point (enthalpy change per injection) ([2]; Molar ratio (Nucleotide/UCP) 0.747006, pH 6.0, 20 °C): -10.6677 | isotherm data point (enthalpy change per injection) ([2]; Molar ratio (Nucleotide/UCP) 0.811976, pH 6.0, 20 °C): -10.8499 | isotherm data point (enthalpy change per injection) ([2]; Molar ratio (Nucleotide/UCP) 0.877378, pH 6.0, 20 °C): -10.2913 | isotherm data point (enthalpy change per injection) ([2]; Molar ratio (Nucleotide/UCP) 0.943214, pH 6.0, 20 °C): -8.027 | isotherm data point (enthalpy change per injection) ([2]; Molar ratio (Nucleotide/UCP) 1.00949, pH 6.0, 20 °C): -6.97 | isotherm data point (enthalpy change per injection) ([2]; Molar ratio (Nucleotide/UCP) 1.0762, pH 6.0, 20 °C): -6.038 | isotherm data point (enthalpy change per injection) ([2]; Molar ratio (Nucleotide/UCP) 1.14336, pH 6.0, 20 °C): -5.024 | isotherm data point (enthalpy change per injection) ([2]; Molar ratio (Nucleotide/UCP) 1.21096, pH 6.0, 20 °C): -4.446 | isotherm data point (enthalpy change per injection) ([2]; Molar ratio (Nucleotide/UCP) 1.27901, pH 6.0, 20 °C): -2.802 | isotherm data point (enthalpy change per injection) ([2]; Molar ratio (Nucleotide/UCP) 1.34751, pH 6.0, 20 °C): -2.027 | isotherm data point (enthalpy change per injection) ([2]; Molar ratio (Nucleotide/UCP) 1.41647, pH 6.0, 20 °C): -1.98 | isotherm data point (enthalpy change per injection) ([2]; Molar ratio (Nucleotide/UCP) 1.48589, pH 6.0, 20 °C): -0.1226 | isotherm data point (enthalpy change per injection) ([2]; Molar ratio (Nucleotide/UCP) 1.55577, pH 6.0, 20 °C): -0.8262 | isotherm data point (enthalpy change per injection) ([2]; Molar ratio (Nucleotide/UCP) 1.62611, pH 6.0, 20 °C): -0.604 | isotherm data point (enthalpy change per injection) ([2]; Molar ratio (Nucleotide/UCP) 1.69692, pH 6.0, 20 °C): -1.2037 | isotherm data point (enthalpy change per injection) ([2]; Molar ratio (Nucleotide/UCP) 1.76819, pH 6.0, 20 °C): -0.3877 | isotherm data point (enthalpy change per injection) ([2]; Molar ratio (Nucleotide/UCP) 1.83995, pH 6.0, 20 °C): 0.4921 | isotherm data point (enthalpy change per injection) ([2]; Molar ratio (Nucleotide/UCP) 1.91217, pH 6.0, 20 °C): -0.1525 | isotherm data point (enthalpy change per injection) ([2]; Molar ratio (Nucleotide/UCP) 1.98488, pH 6.0, 20 °C): -0.1288 | temperature shift (ΔTm) ([3]; 1 mM nucleotide, pH 6.0, detergent-solubilised UCP1, mean of three biological repeats): 12.5 °C | ΔTm at 1000 µM ([3]; pH 6, 1 mM nucleotide, pH 6.0, single repeats (source data Fig. 1D)): 12.3 °C | ΔTm at 1000 µM ([3]; pH 6.5, 1 mM nucleotide, pH 6.5, single repeats (source data Fig. 1D)): 7.9 °C | ΔTm at 1000 µM ([3]; pH 7, 1 mM nucleotide, pH 7.0, single repeats (source data Fig. 1D)): 4.4 °C | change in apparent melting temperature (ΔTm) of hDIC [4]: 0.0
Structure (SMILES): Nc1ccn(C2OC(COP(=O)(O)OP(=O)(O)OP(=O)(O)O)C(O)C2O)c(=O)n1 (stereo not drawn) [CTP]
competition with GDP binding [1]: unable to displace the binding of GDP
